According to patent publication US20160077077A1, “Zinc Fluorescent Probe” (The Procter & Gamble Company, priority 2014, published 2016):

How the values were obtained:
[1] = Metal ion sensing (fluorescence response of Compound R3 to Hg^2+); conditions: excitation 560 nm
Method: (§1) The procedure for metal ion sensing is described. Solutions of the metal ions (10.0 mM) are prepared in deionized water. […] For titration experiments, a 2.0 mL solution of Compound R3 (20 μM) is filled in a quartz optical cell of 1 cm optical path length. Zn^2+ stock solution is added into the quartz optical cell gradually by micro-pipette. Spectral data is recorded at 5 min after addition. In selectivity experiments, test samples are prepared by placing appropriate amounts of metal ion stock into 2.0 mL solution of R3 (20 μM). For fluorescence measurements, excitation is provided at 560 nm, while emission is collected from 565 nm to 700 nm.

[2] = system: Streptococcus mutans (ATCC® 700610™); test: Fluorescence imaging of Zn^2+ in bacteria (CLSM); format: cell-based; conditions: λex 543 nm
Method: The Streptococcus mutans is prepared by inoculating the single colony from the BHI agar plate into 5 mL BHI broth and incubating at 37° C. for 48 hours. The Streptococcus mutans are separately stained with 10 μM of Compound R3 at 37° C. for 60 min.
FIG. 2a 2f are CLSM images of Streptococcus mutans (ATCC® 700610™) cells. FIGS. 2a, 2b, and 2c are said cells incubated with 10 μM of inventive Compound R3 for 60 min to assess base level background fluorescence noise. FIGS. 2d, 2e, and 2f are cells from the same sample pool subsequently incubated with 50 μM Zn^2+ for 60 min. And then red channel emission is collected at 560-660 nm for FIGS. 2b and 2e (λex=543 nm), while FIGS. 2a and 2d are bright-field images. FIG. 2c is an overlay of FIG. 2a and FIG. 2b, while FIG. 2f is an overlap of FIG. 2d and FIG. 2e.

[3] = Metal ion sensing (fluorescence response of Compound R3 to Ca^2+); conditions: Compound R3 2.0 × 10^−5M + Ca^2+ 20.0 × 10^−5M, ethanol-PBS (1:1, v/v, pH 8.04), excitation 560 nm
Method: as §1

[4] = Metal ion sensing (fluorescence response of Compound R3 to Zn^2+)
Method: The procedure for metal ion sensing is described. Solutions of the metal ions (10.0 mM) are prepared in deionized water. A stock solutions of Compound R3 (0.2 mM) is prepared in ethanol and then diluted to 20 μM with ethanol-water (1: 1, v/v, pH 7.04) for spectral measurement. For titration experiments, a 2.0 mL solution of Compound R3 (20 μM) is filled in a quartz optical cell of 1 cm optical path length. Zn^2+ stock solution is added into the quartz optical cell gradually by micro-pipette. Spectral data is recorded at 5 min after addition. In selectivity experiments, test samples are prepared by placing appropriate amounts of metal ion stock into 2.0 mL solution of R3 (20 μM). For fluorescence measurements, excitation is provided at 560 nm, while emission is collected from 565 nm to 700 nm.

[5] = Metal ion sensing (fluorescence response of Compound R3 to other metal ions); conditions: excitation 560 nm
Method: as §1

[6] = Assessing Zn chelation effectiveness (R3 fluorescence with various zinc compounds)
Method: Another application of the composition of the present invention is assessing the effectiveness of a zinc chelator or a zinc chelating system. One aspect of the invention provides a method of assessing the Zn^2+ chelating effectiveness of Zn^2+ chelator or a Zn^2+ chelating system comprising the steps: (a) incubating the Zn^2+ chelator or a Zn^2+ chelating system with a compound of the present invention; (b) shining excitation light to the incubated Zn^2+ chelator or a Zn^2+ chelating system; and (c) detecting light emission from the compound from 560 nm to 660 nm.
There are at least three variables that may affect zinc chelation. Firstly, the inherent characteristic of any particularly zinc chelator compound. Such compounds include lactate, sulfate, nitrate, chloride, citrate, anions, and the like. Mechanism of actions may include ionic interaction (as in a salt) or covalent binding. Another variable is the concentration of one or more zinc chelators in a zinc chelating system. Generally, the more of a zinc chelator the more zinc chelation is observed. […]
Table 2 is the fluorescent relative intensity of inventive Compound R3 (5.0×10^−5 M) upon the addition of various zinc compounds. Each sample contains the same level of zinc ion (5.0×10^−4 M) in H2O/DMSO (1000:1, V/V) solution, with fluorescence assessed at an excitation of 560 nm.

[7] = system: HeLa cells; test: Fluorescence imaging of intracellular Zn^2+ (CLSM); format: cell-based; conditions: λex 543 nm, emission 560-660 nm
Method: Confocal fluorescence imaging is performed with an OLYMPUS IX81 laser scanning microscope and a 60 ×oil-immersion objective lens. The microscope is equipped with multiple visible laser lines (405, 488, 543 nm). Images are collected and processed with Olympus FV10-ASW software.
The HeLa cell line is provided by Biochemistry and Cell Biology (China). Cells are grown in DMEM (Dulbecco's modified Eagle's medium) supplemented with 10% FBS (Fetal Bovine serum) and 5% CO2 at 37° C.
HeLa cells ([…]) are plated on […] glass cover slips and allowed to adhere for 24 hours. 10 μM of Compound R3 in the culture media containing 0.2% (v/v) DMSO is added to the cells. The cells are incubated at 37° C. for 30 min, and washed with PBS three times to remove the excess R3 probe and bathed in PBS (2 mL) before imaging. After washing with PBS (2 mL×3) to remove the excess probe, the cells are treated with 50 μM Zinc lactate for 30 min. Excitation of Compound R3 loaded cells at 543 nm is carried out with a semiconductor laser, and emission is collected at 560-660 nm (single channel).

Structure (SMILES) | Fluorescence intensity in presence of Hg^2+ (selectivity) ([1]; Compound R3 20 μM, ethanol-water (1:1, v/v, pH 7.04)) | Peak Fluorescence Intensity (a.u.) at 570-580 nm ([1]; Compound R3 2.0 × 10^−5M + Hg^2+ 20.0 × 10^−5M, ethanol-PBS (1:1, v/v, pH 8.04)) [a.u.] | Fluorescence in Streptococcus mutans after Zn^2+ ([2]; 10 μM Compound R3 60 min at 37° C., then 50 μM Zn^2+ 60 min, emission 560-660 nm (FIG. 2e)) | Fluorescence emission in Streptococcus mutans without Zn^2+ ([2]; 10 μM Compound R3, 60 min, 37° C., emission 560-660 nm, no Zn^2+ (FIG. 2b)) | Peak Fluorescence Intensity (a.u.) at 570-580 nm [3] [a.u.] | Fluorescence of the solution without metal ion ([4]; Compound R3 20 μM in control ethanol-water (1:1, v/v, pH 7.04), no Zn^2+) | Fluorescence at 580 nm on addition of Zn^2+ ([4]; Compound R3 20 μM, ethanol-water (1:1, v/v, pH 7.04), Zn^2+ 0-12 eq, excitation 560 nm) | Fluorescence intensity in presence of Zn^2+ (selectivity) ([4]; Compound R3 20 μM, ethanol-water (1:1, v/v, pH 7.04), excitation 560 nm) | Peak Fluorescence Intensity (a.u.) at 570-580 nm ([4]; Compound R3 2.0 × 10^−5M + Zn^2+ 20.0 × 10^−5M, ethanol-PBS (1:1, v/v, pH 8.04), excitation 560 nm) [a.u.] | Fluorescence intensity in presence of other transition and heavy metal ions (selectivity) ([5]; Compound R3 20 μM, ethanol-water (1:1, v/v, pH 7.04), K^+, Ag^+, Ca^2+, Mg^2+, Pb^2+, Ni^2+, Mn^2+, Co^2+, Cd^2+, Cu^2+, Fe^2+, Cr^3+, Li^+, Ba^2+, Fe^3+, Na^+) | Peak Fluorescence Intensity (a.u.) at 570-580 nm ([5]; Compound R3 2.0 × 10^−5M + other metal ions (K^+, Ag^+, Ca^2+, Mg^2+, Pb^2+, Ni^2+, Mn^2+, Co^2+, Cd^2+, Cu^2+, Fe^2+, Cr^3+, Li^+, Ba^2+, Fe^3+, Na^+) 20.0 × 10^−5M, ethanol-PBS (1:1, v/v, pH 8.04)) [a.u.] | Peak Fluorescence Intensity (a.u.) at 570-580 nm ([6]; Compound R3 5.0×10^−5 M only (control, no zinc), H2O/DMSO (1000:1, V/V), excitation 560 nm) [a.u.] | Intracellular fluorescence in HeLa cells after Zn^2+ ([7]; 10 μM Compound R3 30 min at 37° C., then 50 μM Zn^2+ 30 min) | Fluorescence emission in HeLa cells without Zn^2+ ([7]; 10 μM Compound R3, 30 min, 37° C., no Zn^2+ (FIG. 1b)) | Relative degree of zinc chelation effectiveness ([6]; among the zinc chelators tested (lactate, sulfate, citrate), from Table 2)
CCN(CC)c1ccc2c(c1)Oc1cc(N(CC)CC)ccc1C21c2ccccc2C(=O)N1CCNCc1ccc[nH]1 [Compound R3, 2-(2-(((1H-pyrrol-2-yl)methyl)amino)ethyl)-3′,6′-bis(diethylamino)spiro[isoindoline-1,9′-xanthen]-3-one] | greatest fluorescence intensity | 1.0 | significant fluorescence increase | no fluorescence emission | 0.25 | non fluorescent | turned on and grew drastically | greatest fluorescence intensity | 0.7 | minimal fluorescence intensity | <0.1 | 0.1 | significant fluorescence increase | no fluorescence emission | 
CC(O)C(=O)[O-].CC(O)C(=O)[O-].[Zn+2] (stereo not drawn) [zinc lactate, reference compound] |  |  |  |  |  |  |  |  |  |  |  |  |  |  | weakest relative degree of zinc chelation effectiveness
